Blank lines part the entries; values can stand above or below the molecule they belong to.
Experiments:
[1] = First pass cerebral extraction in the rat (blood brain barrier crossing of radiolabelled compound); type: in vivo; details: intracardiac injection, physiological rCBF range 0.8-1 ml/min/g
Procedure: Compounds I, prepared according to the present invention and containing radioactive isotopes were tested inrespect of their capacity to cross the brain blood barrier, since CNS receptors tracers should be able to pass through the intact blood brain barrier following intravenous injection.
Measures of the rat brain extraction of the compounds was determined following known procedures based on the use of labelled reference substances with known extraction.
In the rat the first pass cerebral extraction of N-benzyl-3-(4-fluoro-2-^125I-iodo-fenil)-hydroxypropylamine [compound I with R1 = H and R2 = Benzyl, Q = single bond Wn = 2-^125I, 4-F, n = 2, A = OH, m = 0, a = single bond] was evaluated measuring the radioactive compounds concentration in the brain, after an intracardiac injection of a mixture of the tested compound, a completely extracted tracer, as the albumin microspheres labelled with ^99mTc (undergoing to a sort of entrapment in the brain microvasculature) and a non extracted tracer as the sodium salt of hortoiodoippuric acid.

D2 (Dopamine) receptors = molecular target: T1, D2 (Dopamine) receptors (Rattus norvegicus, UniProt P61169); experiment: In vitro inhibition of 3H-spiperone binding, D2 assay (rat brain membranes)
T1 construct: preparation of rat brain membrane enriched in D2 (Dopamine) or S2 (Serotonine) receptors; from tissue; host or cells: rat brain membranes
T1 sequence (P61169 whole entry): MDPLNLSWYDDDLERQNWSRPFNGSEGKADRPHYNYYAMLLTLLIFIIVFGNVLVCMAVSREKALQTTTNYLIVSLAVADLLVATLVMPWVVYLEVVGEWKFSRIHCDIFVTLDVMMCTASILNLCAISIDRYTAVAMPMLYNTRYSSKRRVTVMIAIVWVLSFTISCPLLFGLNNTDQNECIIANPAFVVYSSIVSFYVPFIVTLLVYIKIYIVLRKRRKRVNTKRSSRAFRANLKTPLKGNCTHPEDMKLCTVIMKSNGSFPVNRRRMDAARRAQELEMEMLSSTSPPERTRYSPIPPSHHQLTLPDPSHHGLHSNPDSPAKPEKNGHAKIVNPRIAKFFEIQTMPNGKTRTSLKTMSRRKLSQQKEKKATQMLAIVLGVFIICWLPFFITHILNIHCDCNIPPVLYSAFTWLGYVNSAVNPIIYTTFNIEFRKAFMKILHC
Procedure: The compounds I, prepared according to the present invention, were tested in vitro on preparation of rat brain membrane enriched in D2 (Dopamine) or S2 (Serotonine) receptors accordingly known methods to perform inhibition experiments of the binding of ^3H-receptors ligands.
For the D2 assays the method described by Ferretti et al. (Life Sci 42(24):2457-65, 1988) was used.

[2] = molecular target: T2, S2 (Serotonine) receptors (Rattus norvegicus, UniProt P14842); experiment: In vitro inhibition of 3H-spiperone binding, S2 assay (rat brain membranes)
T2 construct: preparation of rat brain membrane enriched in D2 (Dopamine) or S2 (Serotonine) receptors; from tissue; host or cells: rat brain membranes
T2 sequence (P14842 whole entry): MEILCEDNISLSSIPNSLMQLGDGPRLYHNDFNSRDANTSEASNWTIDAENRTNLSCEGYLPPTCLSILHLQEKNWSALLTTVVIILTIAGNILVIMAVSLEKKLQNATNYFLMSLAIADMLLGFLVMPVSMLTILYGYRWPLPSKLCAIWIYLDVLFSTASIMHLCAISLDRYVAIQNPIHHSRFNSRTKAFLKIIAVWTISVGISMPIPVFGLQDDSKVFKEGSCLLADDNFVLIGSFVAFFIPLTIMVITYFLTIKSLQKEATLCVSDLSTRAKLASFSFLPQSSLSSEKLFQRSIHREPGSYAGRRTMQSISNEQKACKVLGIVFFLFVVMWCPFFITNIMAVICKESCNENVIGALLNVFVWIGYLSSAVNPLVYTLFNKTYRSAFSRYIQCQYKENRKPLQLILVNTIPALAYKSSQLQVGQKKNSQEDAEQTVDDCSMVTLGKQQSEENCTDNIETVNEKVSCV
Procedure: The compounds I, prepared according to the present invention, were tested in vitro on preparation of rat brain membrane enriched in D2 (Dopamine) or S2 (Serotonine) receptors accordingly known methods to perform inhibition experiments of the binding of ^3H-receptors ligands. For the S2 receptor assay the method described by List and Seeman (List S.J. and Seeman P. Proc. Natl. Acad. Sci. USA. 78:2620-2624, 1981) was used with slight adaptations.

cerebral tissue extraction fraction [1]: about 50%
Molecule: OC(CCNCc1ccccc1)c1ccc(F)cc1[125I] (centres unmarked) [N-benzyl-3-(4-fluoro-2-^125I-iodo-fenil)-hydroxypropylamine]

IC50 (D2 (Dopamine) receptors; inhibition of ^3H-spiperone binding, D2 assay, tested in its racemic form): 34 µM
IC50 ([2]; inhibition of ^3H-spiperone binding, S2 assay, tested in its racemic form): 18.7 µM
Molecule: OC(CCNCc1ccccc1)c1ccc(F)cc1Br (racemic) [N-benzyl-3-(2-bromo-4-fluorophenyl)-3-hydroxypropylamine]

Molecule: 2-[3-(4-fluorophenyl)-3-oxopropyl]-tetrahydro-2H-isoindole
binding affinity towards D2 receptors (column D2) (D2 (Dopamine) receptors; compounds at 10 µM concentration, rat brain membrane, unit not given): 12
binding affinity, column T1 ([2]; compounds at 10 µM concentration, rat brain membrane, unit not given, column head T1, text says S2): 65

— EP0972764A1, “Aminoalcohols and aminoketones as CNS active agents” (Universita Degli Studi di Firenze, priority 1998, dated 2000)
